From patent US20210087191A1, “SUBSTITUTED 3-ISOBUTYL-9,10-DIMETHOXY-1,3,4,6,7,11B-HEXAHYDRO-2H-PYRIDO[2,1-a]ISOQUINOLIN-2-OL COMPOUNDS, THEIR [sequence], AND USE THEREOF” (DISPERSOL TECHNOLOGIES, LLC, priority 2020, published 2021)
Values after ≈ are worked out from the molar mass of the structure shown. Counter-ions that a name gives are not always drawn. Like-named read-outs stand apart in the source and are kept apart here.

Columns and labels:
[1] = Metabolic stability in human liver microsomes (LM), LC-MS/MS (first table); format: in vitro ADME; conditions: for microsomal CLint: Table 1, read-out: Human LM CLint (μL/min/mg protein); for half-life: Table 1, read-out: Human LM t1/2
Protocol: (§1) Metabolism of compound(s) to release (+)-α-DTHBZ was determined by the half-life (t1/2) and intrinsic clearance (CIint) in human plasma (PS) and liver microsomes (LM) using tandem mass spectrometry (LC-MS/MS).

[2] = Permeability in Caco-2 cell monolayer; format: in vitro ADME; conditions: human; for efflux ratio: Caco-2; for Papp A→B: Caco-2, apical to basolateral; for Papp B→A: Caco-2, basolateral to apical
Protocol: The intestinal permeability of compound(s) was evaluated in Caco-2 cells by assessing transport across the cell monolayer in the apical to basolateral (A-B) direction. Active efflux was also assessed by measuring transport in the basolateral to apical (BA) direction which enables evaluation of the efflux ratio. Analysis of transport is quantified by tandem mass spectrometry (LC-MS/MS).

[3] = LM stability assay, human (second table); format: in vitro ADME; conditions: human liver microsomes, Table 2; for microsomal CLint: read-out: LM stability assay Human Clint (μL/min/mg protein); for half-life: read-out: LM stability assay Human t1/2
Protocol: Metabolism of compound(s) to release (+)-α-DTHBZ was determined by the half-life (t1/2) and intrinsic clearance (CIint) in human liver microsomes (LM) using tandem mass spectrometry (LC-MS/MS).

[4] = Stability in human plasma (PS), LC-MS/MS; format: in vitro ADME; conditions: for half-life: read-out: Human PS t1/2
Protocol: as §1

[5] = Heps. stability assay, human cryopreserved hepatocytes; format: in vitro ADME; conditions: for microsomal CLint: read-out: Heps. stability assay Human Clint (μL/min/mg protein); for half-life: read-out: Heps. stability assay Human t1/2
Protocol: Metabolism of compound(s) to release (+)-α-DTHBZ was determined by the half-life (t1/2) and intrinsic clearance (CIint) in human cryopreserved hepatocytes using tandem mass spectrometry (LC-MS/MS).

[6] = Kinetic solubility in PBS buffer; format: physicochemical; conditions: aqueous buffer, kinetic from dmso stock, compound suspended at 300 μM, 25° C.
Protocol: Kinetic solubility was determined by suspending compound at 300 μM at pH 1.2 and 7.4 in PBS buffer. The suspension was equilibrated by shaking at 25° C. at 1100 RPM for 2 hours and then pH was measured following filtration. The filtrate was then diluted by an appropriate factor (e.g. 100-fold). Quantitation was done by LC-MS/MS with reference to a standard solution.

[7] = pH 1.2, PBS buffer, read-out: Kinetic Solubility pH = 1.2 (300 μM)
[8] = pH 7.4, PBS buffer, read-out: Kinetic Solubility pH = 7.4 (300 μM)

microsomal CLint [1]	half-life [1]	half-life [4]	Compound	other results
< 3.95 µL/min/mg	> 2.92 h	438 h	COc1cc2c(cc1OC)[C@H]1C[C@@H](OC(=O)NCC(C)C)[C@H](CC(C)C)CN1CC2 [Example 23, (2R,3R,11bR)-9,10-dimethoxy-3-(2-methylpropyl)-1H,2H,3H,4H,6H,7H,11bH-pyrido[2,1-a]isoquinolin-2-yl N-(2-methylpropyl)carbamate]	efflux ratio [2]: 0.67; Papp A→B [2]: 14.2 ×10⁻⁶ cm/s; Papp B→A [2]: 9.54 ×10⁻⁶ cm/s; microsomal CLint [3]: 208 µL/min/mg; half-life [3]: 3.34 min; microsomal CLint [5]: 35.6 µL/min/mg; half-life [5]: 0.649 h; solubility kinetic at 2 h [6, 7]: 312 µM (≈ 131 µg/mL); solubility kinetic at 2 h [6, 8]: 91.2 µM (≈ 38.2 µg/mL)
1.67 µL/min/mg	8.05 h	> 341 h	CCNC(=O)O[C@@H]1C[C@@H]2c3cc(OC)c(OC)cc3CCN2C[C@H]1CC(C)C [Example 21, (2R,3R,11bR)-9,10-dimethoxy-3-(2-methylpropyl)-1H,2H,3H,4H,6H,7H,11bH-pyrido[2,1-a]isoquinolin-2-yl N-ethylcarbamate]	–
–	–	12.7 h	COc1cc2c(cc1OC)[C@@H]1C[C@H](OC(=O)/C=C/C(=O)O)[C@@H](CC(C)C)CN1CC2 (stereo in doubt) [Example 3, (2E)-4-[[(2S,3S,11bS)-9,10-dimethoxy-3-(2-methylpropyl)-1H,2H,3H,4H,6H,7H,11bH-pyrido[2,1-a]isoquinolin-2-yl]oxy]-4-oxobut-2-enoic acid]	Human LM t1/2 (min) ([1]; Table 1): ∞
1.11 µL/min/mg	20.8 h	> 11 h	COc1cc2c(cc1OC)[C@H]1C[C@@H](OC(=O)/C=C/C(=O)O[C@@H]3C[C@@H]4c5cc(OC)c(OC)cc5CCN4C[C@H]3CC(C)C)[C@H](CC(C)C)CN1CC2 [Example 18, bis[(2R,3R,11bR)-9,10-dimethoxy-3-(2-methylpropyl)-1H,2H,3H,4H,6H,7H,11bH-pyrido[2,1-a]isoquinolin-2-yl] (2E)-but-2-enedioate]	–
< 0.08 µL/min/mg	> 143 h	> 53.7 h	COc1cc2c(cc1OC)[C@H]1C[C@@H](OC(=O)c3cncc(C(=O)O[C@@H]4C[C@@H]5c6cc(OC)c(OC)cc6CCN5C[C@H]4CC(C)C)c3)[C@H](CC(C)C)CN1CC2 [Example 15, 3,5-bis[(2R,3R,11bR)-9,10-dimethoxy-3-(2-methylpropyl)-1H,2H,3H,4H,6H,7H,11bH-pyrido[2,1-a]isoquinolin-2-yl] pyridine-3,5-dicarboxylate]	Papp A→B [2]: < 0.01 ×10⁻⁶ cm/s; Papp B→A [2]: < 0.01 ×10⁻⁶ cm/s; LM stability assay Human t1/2 (min) [3]: ∞; microsomal CLint [5]: 16.6 µL/min/mg; half-life [5]: 1.39 h; solubility kinetic at 2 h [6, 7]: 317 µM (≈ 244 µg/mL); solubility kinetic at 2 h [6, 8]: 0.06 µM (≈ 0.0462 µg/mL)
0.84 µL/min/mg	> 13.7 h	134 h	COc1cc2c(cc1OC)[C@H]1C[C@@H](OC(=O)/C=C\C(=O)O[C@@H]3C[C@@H]4c5cc(OC)c(OC)cc5CCN4C[C@H]3CC(C)C)[C@H](CC(C)C)CN1CC2 [Example 19, bis[(2R,3R,11bR)-9,10-dimethoxy-3-(2-methylpropyl)-1H,2H,3H,4H,6H,7H,11bH-pyrido[2,1-a]isoquinolin-2-yl] (2Z)-but-2-enedioate]	–
< 3.4 µL/min/mg	> 3.39 h	55 h	COc1cc2c(cc1OC)[C@H]1C[C@@H](OC(=O)/C=C\C(=O)O)[C@H](CC(C)C)CN1CC2 [Example 4, (2Z)-4-[[(2R,3R,11bR)-9,10-dimethoxy-3-(2-methylpropyl)-1H,2H,3H,4H,6H,7H,11bH-pyrido[2,1-a]isoquinolin-2-yl]oxy]-4-oxobut-2-enoic acid]	–
3.24 µL/min/mg	6.91 h	–	COc1cc2c(cc1OC)[C@@H]1C[C@H](OC(=O)C(=O)O)[C@@H](CC(C)C)CN1CC2 (stereo in doubt) [Example 1, (2S,3S,11bS)-9,10-dimethoxy-3-(2-methylpropyl)-1H,2H,3H,4H,6H,7H,11bH-pyrido[2,1-a]isoquinolin-2-yl hydrogen oxalate]	Human PS t1/2 (min) [4]: ∞
16.3 µL/min/mg	0.708 h	–	COc1cc2c(cc1OC)[C@H]1C[C@@H](OC(=O)c3cncc(C(=O)OC(C)C)c3)[C@H](CC(C)C)CN1CC2 [Example 9, 3-((2R,3R,11bR)-3-isobutyl-9,10-dimethoxy-1,3,4,6,7,11b-hexahydro-2H-pyrido[2,1-a]isoquinolin-2-yl) 5-isopropyl pyridine-3,5-dicarboxylate]	efflux ratio [2]: 0.95; Papp A→B [2]: 0.202 ×10⁻⁶ cm/s; Papp B→A [2]: 0.191 ×10⁻⁶ cm/s; microsomal CLint [3]: 613 µL/min/mg; half-life [3]: 1.13 min; Human PS t1/2 (min) [4]: ∞; microsomal CLint [5]: 121 µL/min/mg; half-life [5]: 0.191 h; solubility kinetic at 2 h [6, 7]: 292 µM (≈ 149 µg/mL); solubility kinetic at 2 h [6, 8]: 0.0018 µM (≈ 0.000919 µg/mL)
–	–	1.98 h	COc1cc2c(cc1OC)[C@H]1C[C@@H](OC(=O)OCOC(=O)C(C)C)[C@H](CC(C)C)CN1CC2 [Example 25, [([[(2R,3R,11bR)-9,10-dimethoxy-3-(2-methylpropyl)-1H,2H,3H,4H,6H,7H,11bH-pyrido[2,1-a]isoquinolin-2-yl]oxy]carbonyl)oxy]methyl 2-methylpropanoate]	–
3.83 µL/min/mg	3.2 h	1.35 h	COc1cc2c(cc1OC)[C@H]1C[C@@H](OC(=O)C(=O)O[C@@H]3C[C@@H]4c5cc(OC)c(OC)cc5CCN4C[C@H]3CC(C)C)[C@H](CC(C)C)CN1CC2 [Example 20, Bis[(2R,3R,11bR)-9,10-dimethoxy-3-(2-methylpropyl)-1H,2H,3H,4H,6H,7H,11bH-pyrido[2,1-a]isoquinolin-2-yl] oxalate]	–
1380 µL/min/mg	0.00833 h	1.39 h	COc1cc2c(cc1OC)[C@H]1C[C@@H](OC(=O)OCOC(=O)CC(C)C)[C@H](CC(C)C)CN1CC2 [Example 26, [([[(2R,3R,11bR)-9,10-dimethoxy-3-(2-methylpropyl)-1H,2H,3H,4H,6H,7H,11bH-pyrido[2,1-a]isoquinolin-2-yl]oxy]carbonyl)oxy]methyl 3-methylbutanoate]	–
98 µL/min/mg	0.118 h	> 11.8 h	COc1cc2c(cc1OC)[C@H]1C[C@@H](OC(=O)/C=C/C(=O)OC(C)C)[C@H](CC(C)C)CN1CC2 [Example 8, (2R,3R,11bR)-9,10-dimethoxy-3-(2-methylpropyl)-1H,2H,3H,4H,6H,7H,11bH-pyrido[2,1-a]isoquinolin-2-yl 1-isopropyl (2E)-but-2-enedioate]	–
4.24 µL/min/mg	2.95 h	0.225 h	COc1cc2c(cc1OC)[C@H]1C[C@@H](OC(=O)/C=C/C(=O)N[C@H](C(=O)O)C(C)C)[C@H](CC(C)C)CN1CC2 [Example 11, (2S)-2-[(2E)-4-[[(2R,3R,11bR)-9,10-dimethoxy-3-(2-methylpropyl)-1H,2H,3H,4H,6H,7H,11bH-pyrido[2,1-a]isoquinolin-2-yl]oxy]-4-oxobut-2-enamido]-3-methylbutanoic acid]	–
5.15 µL/min/mg	2.31 h	> 65.5 h	COc1cc2c(cc1OC)[C@H]1C[C@@H](OC(=O)NC(C)C)[C@H](CC(C)C)CN1CC2 [Example 22, (2R,3R,11bR)-9,10-dimethoxy-3-(2-methylpropyl)-1H,2H,3H,4H,6H,7H,11bH-pyrido[2,1-a]isoquinolin-2-yl N-isopropylcarbamate]	–
104 µL/min/mg	0.111 h	> 3770 h	COc1cc2c(cc1OC)[C@H]1C[C@@H](OC(=O)/C=C\C(=O)OC(C)C)[C@H](CC(C)C)CN1CC2 [Example 10, (2R,3R,11bR)-9,10-dimethoxy-3-(2-methylpropyl)-1H,2H,3H,4H,6H,7H,11bH-pyrido[2,1-a]isoquinolin-2-yl 1-isopropyl (2Z)-but-2-enedioate]	–
2.91 µL/min/mg	4.16 h	0.2 h	COc1cc2c(cc1OC)[C@H]1C[C@@H](OC(=O)/C=C\C(=O)N[C@@H](Cc3ccccc3)C(=O)O)[C@H](CC(C)C)CN1CC2 [Example 14, (2S)-2-[(2Z)-4-[[(2R,3R,11bR)-9,10-dimethoxy-3-(2-methylpropyl)-1H,2H,3H,4H,6H,7H,11bH-pyrido[2,1-a]isoquinolin-2-yl]oxy]-4-oxobut-2-enamido]-3-phenylpropanoic acid]	–
–	–	1.42 h	CCC(=O)OCOC(=O)O[C@@H]1C[C@@H]2c3cc(OC)c(OC)cc3CCN2C[C@H]1CC(C)C [Example 24, [([[(2R,3R,11bR)-9,10-dimethoxy-3-(2-methylpropyl)-1H,2H,3H,4H,6H,7H,11bH-pyrido[2,1-a]isoquinolin-2-yl]oxy]carbonyl)oxy]methylpropanoate]	–
